The record followed here is PMC10385825, “Synthesis of Benzocycloalkanone-Based Michael Acceptors and Biological Activities as Antimalarial and Antitrypanosomal Agents” (Molecules, 2023).

A word on the IC50: it is the concentration that gives 50% inhibition.

Where “and” joins values, the source holds several entries; their conditions need not be identical. Equal entries are not always repeated.

One assay deals with VERO cells. The experiment in a line: Cytotoxicity assay in VERO cells (MTT). The assay is classed as cell-based. To be noted: Chlorocebus sabaeus, 72 h. As to the method:
The in vitro evaluations of compounds toxicity by MTT in VERO cells were performed as described in brief: VERO cells culture in DMEM, BSF 10%, were counted in suspension, seeded at 2 × 10^4 cells/well (100 μL) into a 96-well microplate, and incubated at 37 °C in a humidified 5% CO2 incubator for 24 h. After the incubation period, compounds were added in different concentrations: 50, 100, 150, 200, and 500 μM. The plate was incubated for 72 h in the same conditions. Then, 5 mg mL^−^1 of 3-(4,5-dimethylthiazol-2-yl)-2,5-diphenyl tetrazolium bromide (MTT) was added and incubated in darkness for 4 h. After this time, DMSO was added and the plate was read at 540 nm in a spectrophotometer Synergy HT (Biotek). The test was carried out in triplicate including untreated cells and reference drug controls.

The subject of assay [1] is T. cruzi epimastigotes (Y strain). The experiment in a line: Trypanocidal activity, proliferation of T. cruzi epimastigotes (MTT). In kind it is cell-based. Particulars: Trypanosoma cruzi, 96 h, read-out: %ITcP: T. cruzi (epimastigotes) % inhibition proliferation. The procedure: The trypanocidal activity of compounds 7–39 was evaluated on the viability of T. cruzi epimastigotes (Y Strain). Parasites were cultivated in LIT medium supplemented with 10% FBS. The MTT method was used with minor modifications. Next, 2 × 10^6 parasites/mL were seeded in a 96-well plate, adding 50 μM of each derivative dissolved in DMSO (final concentration remained below 1%). The plate was incubated for 96 h at 29 °C. Then, 5 mg mL^−^1 of 3-(4,5-dimethylthiazol-2-yl)-2,5-diphenyl tetrazolium bromide (MTT) was added and incubated in darkness for 4 h. After this time, acidic isopropanol (4N) was added and the plate was read at 540 nm in a spectrophotometer Synergy HT (Biotek). Benznidazole (50 µM) was used as a reference drug.

The next assay has as its system β-hematin formation. In words: Inhibition of β-hematin formation in vitro. The assay is classed as biochemical. Particulars: n = 3; read-out: IC50 (βHF) inhibition of β-hematin formation (± SEM). As to the method:
The assay was performed according to previously reported protocols. Hemin chloride (50 μL, 4 mM) in DMSO (5.2 mg mL^−1) was pipetted into 96-well microplates. Different concentrations (0.1–100 mM) of the compounds in DMSO were added in triplicate (50 μL) with a final concentration of 0.025 mM–25 mM/well. Water (50 μL) or DMSO (50 μL) were used as controls. […] Next, the plates were incubated at 37 °C for 48 h and subsequently centrifuged (4000 rpm × 15 min). The supernatant was washed twice with DMSO (200 μL) and resuspended in NaOH (200 μL, 0.2 N). The solubilized products were diluted (1:2) with NaOH (0.1 N), and the plates were read in an ELISA reader at 405 nm (Microplate Reader, BIORAD-550). The results are expressed as % IβHF.

The next assay has as its system P. berghei ANKA. The experiment in a line: Four-day suppressive test in P. berghei-infected mice. In kind it is in vivo, Plasmodium berghei (male Balb-C mice). To be noted: for Sd: Survival days (± SEM): 20 mg kg−1 ip once daily, days 1–4 post-infection; for Sd: Survival days (± SEM) / %P: Percentage of parasitemia (± SEM): n = 6; for %P: Percentage of parasitemia (± SEM): fourth day post-infection, 20 mg kg−1 ip once daily for 4 days; for Survival: surviving mice/total, 20 mg kg−1 ip for 4 days. As to the method: Male Balb-C mice with a weight of 18–22 g were fed with a commercial diet ad libitum under standard procedures of animal care following the aforementioned method approved by the Ethics Committee of the Institute of Immunology. The animals were infected with a rodent malaria strain of Plasmodium berghei ANKA. A million infected erythrocytes, in phosphate-buffered saline solution (PBS, 10 mM, pH 7.4, 0.1 mL), were inoculated ip to infect the animal. The parasitemia was inspected by continuous microscopic examination of Giemsa-stained smears.
One million P. berghei, injected in the caudal vein i.v, were used to infect the mice (n = 6). After two hours of inoculation, the compounds that were active in vitro were dissolved in DMSO (0.1 M) and subsequently diluted with Saline-Tween 20 solution (2%), and administered ip for 4 days (20 mg kg^−^1). The parasite load was evaluated on the fourth day by examining Giemsa-stained smears. Chloroquine (20 mg kg^−^1) was used as the positive control and saline solution as the negative control. Non-treated mice were used as a baseline control for survival times. The survival days and percentage of parasitemia were used to express the results.

For the molecule `COc1ccc2c(c1OC)C/C(=C\c1ccc(SCc3ccccc3)cc1)C2=O` [compound 10, (E)-2-[4-(Benzylthio)benzylidene]-2,3-dihydro-4,5-dimethoxyinden-1-one], the IC50 with VERO cells is greater than 150 µM. The inhibition at 50 µM in assay [1] turned out to be 33 ± 5.6%. The IC50 in the assay on β-hematin formation worked out at 33.1 ± 2.5 µM. In the assay with P. berghei ANKA, the “Sd: Survival days (± SEM)” value was 18.8 ± 4.91 days and 18.8 ± 4.9 days; the “%P: Percentage of parasitemia (± SEM)” value is reported as 9.1 ± 2.44%; the Survival is given as 0/6.
For the molecule `COc1ccc(OC)c2c1C/C(=C\c1ccc(SCc3ccccc3)cc1)C2=O` [compound 12, (E)-2-[4-(Benzylthio)benzylidene]-2,3-dihydro-4,7-dimethoxyinden-1-one], in the assay with VERO cells, the IC50 is greater than 150 µM. The inhibition at 50 µM in assay [1] was 18.5 ± 2.9%. For the same molecule, in the assay on β-hematin formation, the IC50 was 0.66 ± 0.1 µM. Further, in the assay with P. berghei ANKA, the “Sd: Survival days (± SEM)” value was 12.3 ± 2.40 days and 12.3 ± 2.4 days; the “%P: Percentage of parasitemia (± SEM)” value worked out at 12.5 ± 3.1%; the Survival is 0/6.
`COc1cc2c(cc1OC)C(=O)/C(=C/c1ccc(SCc3ccccc3)cc1)C2` [compound 11, (E)-2-[4-(Benzylthio)benzylidene]-2,3-dihydro-5,6-dimethoxyinden-1-one]: the IC50 in the assay with VERO cells was greater than 150 µM. Besides, the inhibition at 50 µM in assay [1] is 40 ± 8.2%. Besides, in the assay with β-hematin formation, the IC50 worked out at 0.82 ± 0.1 µM. Further, in the assay on P. berghei ANKA, the “Sd: Survival days (± SEM)” value was 14.2 ± 2.16 days and 14.2 ± 2.2 days; the “%P: Percentage of parasitemia (± SEM)” value stood at 7.6 ± 2.3%; the Survival is recorded as 0/6.
